Source: US8865623B2, “Herbicidally active cyclic diones and derivatives thereof, processes for their preparation, compositions, and method of controlling weeds” (Syngenta Limited, priority 2009, dated 2014)

Key:
Type in all cases: in vivo
Avena fatua (AVEFA) [1] = experiment: Post-emergence herbicidal activity, glasshouse pot test; conditions: Avena fatua, 312 h, rate 250 g/ha, evaluated after 13 days, glasshouse, read-out: Post-emergence activity AVEFA (100=total damage to plant; 0=no damage to plant)
Description: (§1) Seeds of a variety of test species were sown in standard soil in pots. After cultivation for one day (pre-emergence) or after 8 days cultivation (post-emergence) under controlled conditions in a glasshouse (at 24/16° C., day/night; 14 hours light; 65% humidity), the plants were sprayed with an aqueous spray solution derived from the formulation of the technical active ingredient in acetone/water (50:50) solution containing 0.5% Tween 20 (polyoxyethelyene sorbitan monolaurate, CAS RN 9005-64-5). The test plants were then grown in a glasshouse under controlled conditions in a glasshouse (at 24/16° C., day/night; 14 hours light; 65% humidity) and watered twice daily. After 13 days for pre and post-emergence, the test was evaluated (100=total damage to plant; 0=no damage to plant).
(§2) Lolium perenne (LOLPE), Alopecurus myosuroides (ALOMY), Echinochloa crus-galli (ECHCG), and Avena fatua (AVEFA).

[2] = tested on: Echinochloa crus-galli (ECHCG); experiment: as above; conditions: Echinochloa crus-galli, 312 h, rate 250 g/ha, evaluated after 13 days, glasshouse, read-out: Post-emergence activity ECHCG (100=total damage to plant; 0=no damage to plant)
Description: as §1, §2

[3] = tested on: Alopecurus myosuroides (ALOMY); experiment: as above; conditions: Alopecurus myosuroides, 312 h, rate 250 g/ha, evaluated after 13 days, glasshouse, read-out: Post-emergence activity ALOMY (100=total damage to plant; 0=no damage to plant)
Description: as §1, §2

Avena fatua (AVEFA) [4] = experiment: Pre-emergence herbicidal activity, glasshouse pot test; conditions: Avena fatua, 312 h; Rate 250 g/ha; pre-emergence spray; evaluated after 13 days; read-out: Pre-emergence activity AVEFA (100=total damage to plant; 0=no damage to plant)
Description: as §1, §2

[5] = tested on: Echinochloa crus-galli (ECHCG); experiment: as above; conditions: Echinochloa crus-galli, 312 h; Rate 250 g/ha; pre-emergence spray; evaluated after 13 days; read-out: Pre-emergence activity ECHCG (100=total damage to plant; 0=no damage to plant)
Description: as §1, §2

[6] = tested on: Alopecurus myosuroides (ALOMY); experiment: as above; conditions: Alopecurus myosuroides, 312 h; Rate 250 g/ha; pre-emergence spray; evaluated after 13 days; read-out: Pre-emergence activity ALOMY (100=total damage to plant; 0=no damage to plant)
Description: as §1, §2

Lolium perenne (LOLPE) [7] = experiment: Post-emergence herbicidal activity, glasshouse pot test; conditions: Lolium perenne, 312 h, rate 250 g/ha, evaluated after 13 days, glasshouse, read-out: Post-emergence activity LOLPE (100=total damage to plant; 0=no damage to plant)
Description: as §1, §2

Lolium perenne (LOLPE) [8] = experiment: Pre-emergence herbicidal activity, glasshouse pot test; conditions: Lolium perenne, 312 h; Rate 250 g/ha; pre-emergence spray; evaluated after 13 days; read-out: Pre-emergence activity LOLPE (100=total damage to plant; 0=no damage to plant)
Description: as §1, §2

Cc1ccc(Oc2ccc(Cl)cc2)cc1C1=C(O)C(C)(C)OC(C)(C)C1=O [Example A-1]
pest or weed control at 250 g/ha (Avena fatua (AVEFA) [1]): 0% | pest or weed control at 250 g/ha [2]: 60% | pest or weed control at 250 g/ha [3]: 20% | pest or weed control at 250 g/ha (Avena fatua (AVEFA) [4]): 0% | pest or weed control at 250 g/ha [5]: 0% | pest or weed control at 250 g/ha [6]: 0%

Cc1ccc(Oc2ccc(Cl)cc2Cl)cc1C1=C(O)C(C)(C)OC(C)(C)C1=O [Example A-2]
pest or weed control at 250 g/ha (Avena fatua (AVEFA) [1]): 50% | pest or weed control at 250 g/ha [2]: 90% | pest or weed control at 250 g/ha [3]: 60% | pest or weed control at 250 g/ha (Avena fatua (AVEFA) [4]): 0% | pest or weed control at 250 g/ha [5]: 0% | pest or weed control at 250 g/ha [6]: 0%

CCc1ccc(Oc2ccc(Cl)cc2)cc1C1=C(O)C(C)(C)OC(C)(C)C1=O [Example A-4]
pest or weed control at 250 g/ha (Avena fatua (AVEFA) [1]): 0% | pest or weed control at 250 g/ha [2]: 100% | pest or weed control at 250 g/ha [3]: 80% | pest or weed control at 250 g/ha (Avena fatua (AVEFA) [4]): 0% | pest or weed control at 250 g/ha [5]: 100% | pest or weed control at 250 g/ha [6]: 40%

CCc1ccc(Oc2cccc(Cl)c2)cc1C1=C(O)C(C)(C)OC(C)(C)C1=O [Example A-5]
pest or weed control at 250 g/ha (Avena fatua (AVEFA) [1]): 0% | pest or weed control at 250 g/ha [2]: 90% | pest or weed control at 250 g/ha [3]: 20% | pest or weed control at 250 g/ha (Avena fatua (AVEFA) [4]): 0% | pest or weed control at 250 g/ha [5]: 90% | pest or weed control at 250 g/ha [6]: 0%

CCc1ccc(Oc2ccccc2Cl)cc1C1=C(O)C(C)(C)OC(C)(C)C1=O [Example A-6]
pest or weed control at 250 g/ha (Avena fatua (AVEFA) [1]): 0% | pest or weed control at 250 g/ha [2]: 70% | pest or weed control at 250 g/ha [3]: 0% | pest or weed control at 250 g/ha (Avena fatua (AVEFA) [4]): 0% | pest or weed control at 250 g/ha [5]: 30% | pest or weed control at 250 g/ha [6]: 0%

CCc1ccc(Oc2ccc(Br)cc2F)cc1C1=C(O)C(C)(C)OC(C)(C)C1=O [Example A-7]
pest or weed control at 250 g/ha (Avena fatua (AVEFA) [1]): 70% | pest or weed control at 250 g/ha [2]: 100% | pest or weed control at 250 g/ha [3]: 90% | pest or weed control at 250 g/ha (Avena fatua (AVEFA) [4]): 60% | pest or weed control at 250 g/ha [5]: 100% | pest or weed control at 250 g/ha [6]: 60%

CCc1ccc(Oc2ccc(F)c(C)c2)cc1C1=C(O)C(C)(C)OC(C)(C)C1=O [Example A-179]
pest or weed control at 250 g/ha (Lolium perenne (LOLPE) [7]): 20% | pest or weed control at 250 g/ha (Avena fatua (AVEFA) [1]): 0% | pest or weed control at 250 g/ha [2]: 20% | pest or weed control at 250 g/ha [3]: 0% | pest or weed control at 250 g/ha (Lolium perenne (LOLPE) [8]): 0% | pest or weed control at 250 g/ha (Avena fatua (AVEFA) [4]): 0% | pest or weed control at 250 g/ha [6]: 0%

CCc1ccc(Oc2ccc(Cl)cc2C)cc1C1=C(O)C(C)(C)OC(C)(C)C1=O [Example A-180]
pest or weed control at 250 g/ha (Lolium perenne (LOLPE) [7]): 10% | pest or weed control at 250 g/ha (Avena fatua (AVEFA) [1]): 0% | pest or weed control at 250 g/ha [2]: 30% | pest or weed control at 250 g/ha [3]: 0% | pest or weed control at 250 g/ha (Lolium perenne (LOLPE) [8]): 0% | pest or weed control at 250 g/ha (Avena fatua (AVEFA) [4]): 0% | pest or weed control at 250 g/ha [6]: 0%

CCc1ccc(Oc2ccc(OC(F)(F)F)cc2)cc1C1=C(O)C(C)(C)OC(C)(C)C1=O [Example A-242]
pest or weed control at 250 g/ha (Lolium perenne (LOLPE) [7]): 100% | pest or weed control at 250 g/ha (Avena fatua (AVEFA) [1]): 100% | pest or weed control at 250 g/ha [2]: 100% | pest or weed control at 250 g/ha [3]: 100% | pest or weed control at 250 g/ha (Lolium perenne (LOLPE) [8]): 80% | pest or weed control at 250 g/ha (Avena fatua (AVEFA) [4]): 40% | pest or weed control at 250 g/ha [6]: 70%

CCc1ccc(Oc2cnc3cc(Cl)ccc3n2)cc1C1=C(O)[C@@H]2CC[C@](C)(C1=O)C2(C)C [Example A-243]
pest or weed control at 250 g/ha (Lolium perenne (LOLPE) [7]): 100% | pest or weed control at 250 g/ha (Avena fatua (AVEFA) [1]): 100% | pest or weed control at 250 g/ha [2]: 100% | pest or weed control at 250 g/ha [3]: 100% | pest or weed control at 250 g/ha (Lolium perenne (LOLPE) [8]): 100% | pest or weed control at 250 g/ha (Avena fatua (AVEFA) [4]): 80% | pest or weed control at 250 g/ha [6]: 90%
